From PMC9463526 (Journal of Pharmaceutical Analysis, 2022)
Read-outs that look alike come from different tables or passages of the source.

Legend:
[1] = Equilibrium dialysis, fraction unbound in plasma; format: in vitro ADME, human; conditions: pH 7.4, 16 h equilibrium dialysis
Experimental: (§1) Equilibrium dialysis was employed to measure the fraction unbound of analytes in plasma, brain, and brain tumor tissue homogenates using 96-well DispoEquilibrium Dialyzer plates with a 10 kDa cut-off regenerated cellulose membrane. Dialysis was performed using 180 μL of human plasma or tissue homogenate against an equal volume of PBS (pH 7.4) in a dual-plate rotator (Harvard Apparatus, Holliston, MA, USA). Equilibrium time was initially optimized by analyzing samples after 2, 4, 6, 8, 16, and 24 h of dialysis at concentrations of 20 and 200 nM in human plasma and brain homogenate. The dialysates were collected and processed as described in Sections 2.3.2 and 2.3.3. The recovery of analytes was calculated as the ratio of analyte concentration after dialysis (sum of concentrations found in PBS and matrix fractions) to the total concentration to ensure the reliability and reproducibility of the assay. The experiments were repeated at least three times, and each sample in triplicate and average fraction unbound values were determined.
(§2) The fraction unbound in plasma (fu, plasma) and tissue homogenate (fu, hom) was evaluated as the analyte concentration ratio of post-dialysis PBS (cu) to post-dialysis plasma (cp, Eq. (1)) or homogenate (chom, Eq. (2)).(1) fu,plasma =cu/cp (2) fu,hom =cu/chom
(§3) Unbound drug levels in the actual plasma and brain tumor tissue were measured using dialysis for 16 h to reach equilibrium. The mean of fraction unbound values determined in five patient samples was calculated.

[2] = Equilibrium dialysis, fraction unbound in brain homogenate; format: in vitro ADME, human; conditions: pH 7.4; human brain homogenate spiked at 20 and 200 nM; 16 h equilibrium dialysis; read-out: Fraction unbound (fu), Brain
Experimental: as §1, §2
(§4) The fraction unbound in the actual tissue (fu, tissue) was obtained by incorporating the unbound fraction in the tissue homogenate (fu, hom) and the dilution factor (Df) into Eq. (3).(3) fu,tissue = fu,hom/[Df - (Df - 1)fu,hom]

[3] = Equilibrium dialysis, fraction unbound in patient brain tumor tissue; format: in vitro ADME; conditions: human, five patients, 16 h equilibrium dialysis
Experimental: as §1, §2, §4, §3
The validated bioanalytical method was employed to investigate analytes pharmacokinetics in the plasma, brain tumor, and CSF in GBM patients (ClinicalTrials.gov identifier: NCT04391595). The protocol was reviewed and approved by the Institutional Review Board of the Barrow Neurological Institute, St. Joseph's Hospital and Medical Center (Phoenix, AZ, USA). All patients enrolled in the trial provided written informed consent. […] Blood, CSF, and GBM tissue (including gadolinium-contrast enhancing and non-enhancing regions) samples were obtained intra-operatively from each patient on the […] on the planned operation day. Blood was centrifuged at 4 °C and 3,000 r/min for 10 min; plasma was subsequently collected. Brain tumors were resected 7–9 h after the last dose was administered. Once resected, the tissue samples were rinsed with PBS, paper dried, and freshly frozen in liquid nitrogen. The samples were then stored at −80 °C in a freezer for later analysis.

[4] = Analyte stability in brain homogenate; format: physicochemical, human; conditions: for Freeze-thaw stability, Accuracy / Freeze-thaw stability, Difference: 3 cycles; for Freeze-thaw stability, Difference / Benchtop stability, Difference / Processed sample stability, Difference / Autosampler stability (5 °C), Difference / Long-term stability (−20 °C), Difference: vs freshly processed QC; for Benchtop stability, Accuracy / Benchtop stability, Difference: 6 h; for Processed sample stability, Accuracy / Processed sample stability, Difference: 22 h; for Autosampler stability (5 °C), Accuracy / Autosampler stability (5 °C), Difference: 96 h; for Long-term stability (−20 °C), Difference: 39 days
Experimental: The stability of the analytes was studied under various storage and processing conditions. […] Short- and long-term stability studies of all analytes were conducted in human blank plasma and brain homogenate under several storage conditions. Analyte stability in biological matrices was analyzed using freshly prepared calibration standards and QC samples. The percentage difference between the stability and freshly processed QC was also assessed. Re-injection reproducibility was evaluated within the sample stability period in the autosampler. Analytes were considered stable if the accuracy at each level was ±15.0% of the nominal value. Additionally, the difference from corresponding comparison QC samples must be within ±15.0%.

[5] = parameters: method as in investigational brochures; conditions: ref investigational brochures; cited from earlier work
[6] = cited from earlier work
[7] = rat; cited from earlier work
[8] = mouse; cited from earlier work
[9] = cited from earlier work; remark: listed apart in the source

Structure (SMILES): CCN1CCN(Cc2ccc(Nc3ncc(F)c(-c4cc(F)c5nc(C)n(C(C)C)c5c4)n3)nc2)CC1 [Abemaciclib]
- fraction unbound at 16 h ([1]; human, plasma of five GBM patients, read-out: Fraction unbound (fu), Plasma (patients)): 0.026
- fraction unbound at 16 h ([1]; pooled human plasma spiked at 20 and 200 nM, read-out: Fraction unbound (fu), Plasma (pooled)): 0.026
- fraction unbound at 16 h [2]: 0.013
- fraction unbound at 16 h ([3]; pH 7.4, gadolinium contrast enhancing GBM region, read-out: Fraction unbound (fu), GBM (E)): 0.014
- fraction unbound at 16 h ([3]; pH 7.4, gadolinium contrast non-enhancing GBM region, read-out: Fraction unbound (fu), GBM (NE)): 0.011
- Freeze-thaw stability, Accuracy ([4]; HQC 400.0 nM): 106.8%
- Freeze-thaw stability, Difference ([4]; HQC 400.0 nM): −3.2%
- Freeze-thaw stability, Accuracy ([4]; LQC 0.6 nM): 104.4%
- Freeze-thaw stability, Difference ([4]; LQC 0.6 nM): −5.7%
- Benchtop stability, Accuracy ([4]; HQC 400.0 nM): 97.3%
- Benchtop stability, Difference ([4]; HQC 400.0 nM): −3.7%
- Benchtop stability, Accuracy ([4]; LQC 0.6 nM): 108.3%
- Benchtop stability, Difference ([4]; LQC 0.6 nM): 6.7%
- Processed sample stability, Accuracy ([4]; HQC 400.0 nM): 99.6%
- Processed sample stability, Difference ([4]; HQC 400.0 nM): −1.4%
- Processed sample stability, Accuracy ([4]; LQC 0.6 nM): 104.5%
- Processed sample stability, Difference ([4]; LQC 0.6 nM): 3.0%
- Autosampler stability (5 °C), Accuracy ([4]; HQC 400.0 nM): 102.8%
- Autosampler stability (5 °C), Difference ([4]; HQC 400.0 nM): 3.3%
- Autosampler stability (5 °C), Accuracy ([4]; LQC 0.6 nM): 108.3%
- Autosampler stability (5 °C), Difference ([4]; LQC 0.6 nM): 13.8%
- Long-term stability (−20 °C), Difference ([4]; HQC 400.0 nM): −1.5%
- Long-term stability (−20 °C), Difference ([4]; LQC 0.6 nM): −6.9%
- pKa (strongest basic) [5]: 7.95
- Distribution (LogD, pH7.4), experimentally measured (value in parenthesis) ([6]; pH 7.4): 2.70
- Lipophilicity, experimentally measured (value in parenthesis) ([6]; ref [12]): 3.36
- fu, brain [7]: 0.0043
- fu, brain [8]: 0.0079
- fu, plasma (previously published) [9]: 0.027
